Measured values taken from the NIST ThermoML archive (doi:10.1021/je700339f).

Test: xn = mol fraction of the nth substance listed
Conditions: 298 K, Liquid

ClCCCCCCCl [1,6-dichlorohexane] + CN(C)C=O
mass density [kg/m3]
Conditions | x2 = 0.0986 | x2 = 0.2013 | x2 = 0.3197 | x2 = 0.4014 | x2 = 0.5033 | x2 = 0.6037 | x2 = 0.7034 | x2 = 0.8019 | x2 = 0.9008
100 kPa | 1056.4 | 1048.6 | 1038.2 | 1030.1 | 1019 | 1007.3 | 994.3 | 980 | 963.6
500 kPa | 1056.6 | 1048.8 | 1038.4 | 1030.3 | 1019.3 | 1007.6 | 994.6 | 980.3 | 963.9
1000 kPa | – | 1049.2 | 1038.8 | 1030.7 | 1019.6 | 1007.9 | 995 | 980.6 | 964.2
1100 kPa | 1057.1 | – | – | – | – | – | – | – | –
1500 kPa | 1057.3 | 1049.6 | 1039.2 | 1031.1 | 1020 | 1008.2 | 995.3 | 980.9 | 964.5
2000 kPa | 1057.7 | 1049.9 | 1039.5 | 1031.4 | 1020.3 | 1008.6 | 995.6 | 981.3 | 964.8
2500 kPa | 1058 | 1050.2 | 1039.8 | 1031.7 | 1020.7 | 1008.9 | 995.9 | 981.6 | 965.1
2900 kPa | – | – | – | – | 1021 | – | – | – | –
3000 kPa | 1058.4 | 1050.6 | 1040.2 | 1032.1 | – | 1009.2 | 996.3 | 981.9 | 965.4
3500 kPa | 1058.7 | 1050.9 | 1040.5 | 1032.4 | 1021.3 | 1009.6 | 996.6 | 982.2 | 965.8
4000 kPa | 1059.1 | 1051.3 | 1040.8 | 1032.8 | 1021.7 | 1009.9 | 996.9 | 982.6 | 966.1
4500 kPa | 1059.4 | 1051.6 | 1041.2 | 1033.2 | 1022 | 1010.2 | 997.2 | 982.9 | 966.4
4900 kPa | – | – | – | – | – | – | – | 983.2 | –
5000 kPa | 1059.8 | 1052 | 1041.5 | 1033.4 | 1022.3 | 1010.5 | 997.5 | – | 966.7
5500 kPa | 1060.1 | 1052.3 | 1041.8 | 1033.8 | 1022.6 | 1010.9 | 997.8 | 983.5 | 967
5900 kPa | – | – | – | – | – | 1011.2 | – | – | –
6000 kPa | 1060.4 | 1052.6 | 1042.2 | 1034.2 | 1023 | – | 998.2 | 983.9 | 967.3
6400 kPa | – | – | – | – | – | – | – | 984.2 | –
6500 kPa | 1060.8 | 1053 | 1042.6 | 1034.5 | 1023.3 | 1011.5 | 998.5 | – | 967.7
6900 kPa | – | – | – | 1034.8 | – | – | – | – | 967.8
7000 kPa | 1061.1 | 1053.3 | 1042.9 | – | 1023.7 | 1011.9 | 998.8 | 984.5 | –
7400 kPa | – | – | – | 1035.1 | – | – | – | – | –
7500 kPa | 1061.5 | 1053.7 | 1043.2 | – | 1024 | 1012.2 | 999.1 | 984.8 | 968.2
7900 kPa | 1061.8 | – | – | – | – | – | – | – | –
8000 kPa | – | 1054 | 1043.5 | 1035.5 | 1024.4 | 1012.6 | 999.5 | 985.1 | 968.5
8400 kPa | – | – | – | – | – | 1012.8 | – | 985.4 | 968.8
8500 kPa | 1062.2 | 1054.4 | 1043.8 | 1035.8 | 1024.6 | – | 999.8 | – | –
8900 kPa | – | – | – | – | – | 1013.1 | – | – | –
9000 kPa | 1062.5 | 1054.7 | 1044.2 | 1036.1 | 1025 | – | 1000.1 | 985.8 | 969.1
9400 kPa | – | – | – | – | – | – | – | – | 969.4
9500 kPa | 1062.8 | 1055.1 | 1044.5 | 1036.5 | 1025.3 | 1013.5 | 1000.4 | 986.1 | –
10000 kPa | 1063.1 | 1055.5 | 1044.9 | 1036.9 | – | – | – | – | –
